Measured values from PMC5947877 (Phytomedicine : international journal of phytotherapy and …, 2017).
Entries after “also recorded” stand apart in the source; their conditions may differ.

Experiments:
recombinant human MAO-A [1] = biological target: T1, recombinant human MAO-A (Homo sapiens, UniProt P21397); test: Fluorometric kynuramine deamination assay, MAO-A inhibition; assay type: biochemical; details: ratio of IC50 MAO-B / MAO-A
T1 sequence (P21397 1-527): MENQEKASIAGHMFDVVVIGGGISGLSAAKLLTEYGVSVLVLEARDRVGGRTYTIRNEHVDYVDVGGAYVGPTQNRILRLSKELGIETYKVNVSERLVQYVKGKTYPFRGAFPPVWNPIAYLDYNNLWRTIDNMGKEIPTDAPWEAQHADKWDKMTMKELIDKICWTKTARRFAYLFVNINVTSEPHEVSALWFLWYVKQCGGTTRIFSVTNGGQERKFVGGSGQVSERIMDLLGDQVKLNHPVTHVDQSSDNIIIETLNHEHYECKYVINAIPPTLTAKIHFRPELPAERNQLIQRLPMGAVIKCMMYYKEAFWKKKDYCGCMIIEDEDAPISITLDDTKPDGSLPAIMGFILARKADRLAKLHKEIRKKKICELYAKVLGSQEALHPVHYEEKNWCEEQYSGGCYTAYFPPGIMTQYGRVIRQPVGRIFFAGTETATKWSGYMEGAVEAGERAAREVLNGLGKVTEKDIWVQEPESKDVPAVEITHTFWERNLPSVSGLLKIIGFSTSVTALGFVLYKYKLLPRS

recombinant human MAO-B = biological target: T2, recombinant human MAO-B (Homo sapiens, UniProt P27338); test: Fluorometric kynuramine deamination assay, MAO-B inhibition; assay type: biochemical
T2 sequence (P27338 1-520): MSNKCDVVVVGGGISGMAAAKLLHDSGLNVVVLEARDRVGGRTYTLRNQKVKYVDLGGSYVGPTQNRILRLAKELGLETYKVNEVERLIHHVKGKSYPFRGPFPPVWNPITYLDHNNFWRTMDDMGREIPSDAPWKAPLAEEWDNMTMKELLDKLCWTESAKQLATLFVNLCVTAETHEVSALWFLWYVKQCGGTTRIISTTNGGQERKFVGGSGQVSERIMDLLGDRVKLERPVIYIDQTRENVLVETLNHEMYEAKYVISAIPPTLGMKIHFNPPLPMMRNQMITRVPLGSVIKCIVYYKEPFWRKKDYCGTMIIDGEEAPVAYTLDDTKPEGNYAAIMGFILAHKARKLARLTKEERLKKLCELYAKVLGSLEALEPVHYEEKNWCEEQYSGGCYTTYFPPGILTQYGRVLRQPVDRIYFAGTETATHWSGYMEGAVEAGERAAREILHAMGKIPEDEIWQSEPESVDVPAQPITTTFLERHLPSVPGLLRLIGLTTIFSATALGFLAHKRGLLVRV

recombinant human MAO-A [2] = biological target: T1, recombinant human MAO-A; test: Enzyme kinetics and mechanism of inhibition with MAO-A; assay type: biochemical; details: for Type of Inhibition, Monoamine oxidase-A: Lineweaver-Burk analysis, reversibility from dialysis
recombinant human MAO-A [3] = biological target: T1, recombinant human MAO-A; details: dialysis 14-16 h at 4 °C

Type of Inhibition, Monoamine oxidase-A (recombinant human MAO-A [2]; listed as myricetin)	SMILES	preferential MAO-A inhibition over MAO-B (fold) (recombinant human MAO-A [1])	IC50 (recombinant human MAO-B) [µM]	Ki (recombinant human MAO-A [2]) [µM]	Type of Inhibition, Monoamine oxidase-A (recombinant human MAO-A [2])	Type of Inhibition, Monoamine oxidase-A (recombinant human MAO-A [2]; listed as quercetin)	nature of binding to MAO-A (recovery of activity after dialysis) (recombinant human MAO-A [3])
	O=c1c(O)c(-c2ccc(O)c(O)c2)oc2cc(O)cc(O)c12 [Quercetin, quercetin]	18	28.4 ± 5.41	0.29 ± 0.03	Competitive/Reversible	competitive	reversible binding; also recorded: reversible inhibition
mixed-type	O=c1c(O)c(-c2cc(O)c(O)c(O)c2)oc2cc(O)cc(O)c12 [Myricetin, myricetin]		59.3 ± 1.78	2.24 ± 0.25	Mixed/Reversible		reversible binding; also recorded: reversible inhibition
